Active and inactive are the calls of the source.

Broadly, the AC50 is the concentration giving half of the maximal activity seen. For orientation: IC50 means the concentration needed to halve the response being measured. The term CC50 denotes the concentration that lowers cell viability or growth by half.

Test [1] concerns the target T1, RNA-binding protein pos-1 (Caenorhabditis elegans, UniProt G5EF15).
T1 sequence (G5EF15 whole entry): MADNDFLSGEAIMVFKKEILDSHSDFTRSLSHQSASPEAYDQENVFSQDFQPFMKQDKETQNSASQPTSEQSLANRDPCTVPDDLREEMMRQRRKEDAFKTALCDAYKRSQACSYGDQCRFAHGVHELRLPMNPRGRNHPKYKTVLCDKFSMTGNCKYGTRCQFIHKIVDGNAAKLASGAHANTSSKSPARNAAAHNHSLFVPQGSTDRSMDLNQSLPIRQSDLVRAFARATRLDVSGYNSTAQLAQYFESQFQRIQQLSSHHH
The test is described as follows: disruptors of C. elegans POS-1 RNA interaction – biochemical, fluorescence polarization, dose response (AID 1964).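 Further: purified POS-1 fused to maltose binding protein made in E. coli; potency of compounds blocking POS-1 binding to fluorescent RNA.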 In general terms: Polarisation of emitted light reports the rotation of a fluorescent probe.

For test [2], the target named is T2, Zinc finger protein mex-5 (Caenorhabditis elegans, UniProt Q9XUB2).
T2 sequence (Q9XUB2 whole entry): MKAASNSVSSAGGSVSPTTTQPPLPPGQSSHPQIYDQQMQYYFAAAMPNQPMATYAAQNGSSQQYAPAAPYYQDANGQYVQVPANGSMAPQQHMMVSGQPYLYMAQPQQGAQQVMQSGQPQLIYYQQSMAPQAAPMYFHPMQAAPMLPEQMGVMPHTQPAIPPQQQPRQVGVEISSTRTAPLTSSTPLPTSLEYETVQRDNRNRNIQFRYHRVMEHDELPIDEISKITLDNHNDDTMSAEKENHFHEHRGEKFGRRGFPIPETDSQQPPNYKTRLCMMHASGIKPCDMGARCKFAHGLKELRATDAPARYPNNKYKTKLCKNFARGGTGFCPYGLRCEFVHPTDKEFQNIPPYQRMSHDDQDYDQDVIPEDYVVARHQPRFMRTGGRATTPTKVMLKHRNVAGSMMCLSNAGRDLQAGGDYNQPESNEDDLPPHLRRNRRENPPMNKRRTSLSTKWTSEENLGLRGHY
The test is described as follows: potency of MEX-5 RNA-binding blockers – biochemical, C. elegans, fluorescence polarization, dose response (AID 1960).

The next test has as its system HeLa. The test is described as follows: viability loss in HeLa cells – cell-based, 24 h, cherry-picked samples, cytotoxicity control, dose response (AID 504726).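 Further: potency for cytotoxicity as loss of luminescence signal.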 In kind it is functional. To be noted: Homo sapiens.
Test [3] concerns the target T3, Endoribonuclease toxin MazF (Escherichia coli K-12, UniProt P0AE70).
T3 sequence (P0AE70 whole entry): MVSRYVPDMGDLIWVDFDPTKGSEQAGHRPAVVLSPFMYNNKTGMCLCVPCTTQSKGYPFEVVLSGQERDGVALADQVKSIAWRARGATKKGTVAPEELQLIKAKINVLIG
The test is described as follows: activation of MazEF endoribonuclease cleavage – biochemical, fluorescence, single-stranded RNA substrate, uHTS hits, dose response (AID 588481). It counts as functional.

Test [4] addresses T3, Endoribonuclease toxin MazF. In words: substrate-only fluorescence increase artefacts – biochemical, single-stranded RNase substrate, counter-screen for MazEF activator project, dose response (AID 588502). It counts as functional. (Counterscreens check selectivity or assay interference.)
Test [5] concerns the target T4, Corticotropin-releasing factor receptor 2/Corticotropin-releasing factor-binding protein (Homo sapiens, UniProt P24387+Q13324).
T4 sequence (Q13324 whole entry): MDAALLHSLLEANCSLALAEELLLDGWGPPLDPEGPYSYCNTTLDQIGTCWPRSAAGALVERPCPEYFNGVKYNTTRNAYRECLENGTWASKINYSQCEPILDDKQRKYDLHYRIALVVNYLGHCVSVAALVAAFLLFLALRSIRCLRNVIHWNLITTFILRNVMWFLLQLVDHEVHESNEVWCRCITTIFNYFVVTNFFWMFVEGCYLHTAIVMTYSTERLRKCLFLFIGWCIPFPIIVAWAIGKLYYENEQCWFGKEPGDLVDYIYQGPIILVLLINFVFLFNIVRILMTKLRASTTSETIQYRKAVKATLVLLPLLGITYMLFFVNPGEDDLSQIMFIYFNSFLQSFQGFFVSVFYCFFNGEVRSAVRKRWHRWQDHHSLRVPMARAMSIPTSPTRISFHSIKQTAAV
T4 sequence (P24387 whole entry): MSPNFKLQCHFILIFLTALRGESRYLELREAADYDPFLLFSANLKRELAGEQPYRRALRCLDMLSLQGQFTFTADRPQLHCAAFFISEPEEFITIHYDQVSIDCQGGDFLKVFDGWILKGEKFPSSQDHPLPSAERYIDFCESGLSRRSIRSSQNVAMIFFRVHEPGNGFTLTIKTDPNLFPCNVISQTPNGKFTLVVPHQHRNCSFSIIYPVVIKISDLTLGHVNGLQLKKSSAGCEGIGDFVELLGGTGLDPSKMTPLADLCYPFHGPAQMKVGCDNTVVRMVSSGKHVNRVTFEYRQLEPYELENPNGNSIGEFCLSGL
In words: activators of CRF receptor 2 with binding protein – uHTS hits, confirmation (AID 602473). It counts as functional. To be noted: read-out: EC50_Mean.

The target of test [6] is Induced myeloid leukemia cell differentiation protein Mcl-1 (Homo sapiens, UniProt Q07820). In kind it is functional.
A further test addresses T5, Hexokinase HKDC1 (Homo sapiens, UniProt Q2TB90).
T5 sequence (Q2TB90 whole entry): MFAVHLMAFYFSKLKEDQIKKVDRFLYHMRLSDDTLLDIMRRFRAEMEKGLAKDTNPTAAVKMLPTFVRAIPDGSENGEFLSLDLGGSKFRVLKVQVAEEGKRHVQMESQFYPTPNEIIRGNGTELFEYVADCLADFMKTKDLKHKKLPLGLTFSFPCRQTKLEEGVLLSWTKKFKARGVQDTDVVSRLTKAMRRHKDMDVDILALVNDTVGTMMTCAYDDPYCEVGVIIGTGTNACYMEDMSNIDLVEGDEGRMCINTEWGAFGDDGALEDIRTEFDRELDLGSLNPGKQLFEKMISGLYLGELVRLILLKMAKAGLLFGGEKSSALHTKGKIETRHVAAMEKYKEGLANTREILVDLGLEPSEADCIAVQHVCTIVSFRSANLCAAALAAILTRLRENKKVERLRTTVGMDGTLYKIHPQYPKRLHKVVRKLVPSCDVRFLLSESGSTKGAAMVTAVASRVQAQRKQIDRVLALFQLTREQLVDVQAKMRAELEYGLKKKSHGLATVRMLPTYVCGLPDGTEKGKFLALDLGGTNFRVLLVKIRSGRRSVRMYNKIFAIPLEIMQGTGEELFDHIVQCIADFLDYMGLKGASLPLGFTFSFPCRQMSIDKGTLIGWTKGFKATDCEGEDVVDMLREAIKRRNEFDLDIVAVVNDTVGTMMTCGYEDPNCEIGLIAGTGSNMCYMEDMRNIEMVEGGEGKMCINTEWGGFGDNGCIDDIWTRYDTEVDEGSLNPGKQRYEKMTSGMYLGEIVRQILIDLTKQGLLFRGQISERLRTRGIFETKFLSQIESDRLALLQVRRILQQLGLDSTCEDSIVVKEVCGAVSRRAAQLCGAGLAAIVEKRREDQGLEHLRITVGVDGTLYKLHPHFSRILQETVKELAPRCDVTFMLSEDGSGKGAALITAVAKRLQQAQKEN
The test is described as follows: inhibition of HKDC1 glucose phosphorylation – biochemical, W721R variant, dose response (AID 504729). It counts as functional.

Another test deals with Vero. The test is described as follows: viability of Vero cells under compound – cytotoxicity control for flavivirus capping enzyme inhibitors (AID 588742). In kind it is functional. To be noted: Chlorocebus sabaeus.
The target in a further test is Genome polyprotein (dengue virus type 2, UniProt P29990). In words: flavivirus cap methylation enzyme inhibition – biochemical, confirmation dose response, primary screen (AID 588689). It counts as functional.
Test [7] can be described thus: viability loss in THP-1 monocytes – THP-1 cells, cytotoxicity control for Vif-APOBEC3G degradation inhibitor project, dose response (AID 1117359). It counts as functional. To be noted: THP-1.
Test [8] concerns the target T6, Rac GTPase-activating protein 1 (Homo sapiens, UniProt Q9H0H5).
T6 sequence (Q9H0H5 whole entry): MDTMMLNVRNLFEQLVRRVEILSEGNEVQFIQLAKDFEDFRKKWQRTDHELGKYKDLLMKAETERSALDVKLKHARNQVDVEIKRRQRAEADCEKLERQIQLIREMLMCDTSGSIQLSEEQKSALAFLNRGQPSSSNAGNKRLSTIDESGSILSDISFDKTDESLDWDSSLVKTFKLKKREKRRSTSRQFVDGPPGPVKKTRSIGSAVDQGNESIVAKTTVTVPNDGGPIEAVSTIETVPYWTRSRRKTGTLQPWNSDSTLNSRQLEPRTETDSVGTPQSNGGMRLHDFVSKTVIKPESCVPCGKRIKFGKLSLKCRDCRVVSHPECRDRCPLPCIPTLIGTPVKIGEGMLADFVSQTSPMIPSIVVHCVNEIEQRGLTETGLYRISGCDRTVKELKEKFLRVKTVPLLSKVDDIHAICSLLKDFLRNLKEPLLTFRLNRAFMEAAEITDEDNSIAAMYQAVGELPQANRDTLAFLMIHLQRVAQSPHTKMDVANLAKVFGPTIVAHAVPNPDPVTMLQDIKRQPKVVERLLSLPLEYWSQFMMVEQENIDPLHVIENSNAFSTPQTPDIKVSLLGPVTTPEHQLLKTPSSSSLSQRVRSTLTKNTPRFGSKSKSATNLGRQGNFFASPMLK
In words: blockers of MgcRacGAP-driven Rac1 GTP hydrolysis – biochemical, ADP Hunter fluorescence, primary and confirmatory, confirmation (AID 624330). In kind it is functional.

Chain of Induced myeloid leukemia cell differentiation protein Mcl-1 (Q07820 whole entry): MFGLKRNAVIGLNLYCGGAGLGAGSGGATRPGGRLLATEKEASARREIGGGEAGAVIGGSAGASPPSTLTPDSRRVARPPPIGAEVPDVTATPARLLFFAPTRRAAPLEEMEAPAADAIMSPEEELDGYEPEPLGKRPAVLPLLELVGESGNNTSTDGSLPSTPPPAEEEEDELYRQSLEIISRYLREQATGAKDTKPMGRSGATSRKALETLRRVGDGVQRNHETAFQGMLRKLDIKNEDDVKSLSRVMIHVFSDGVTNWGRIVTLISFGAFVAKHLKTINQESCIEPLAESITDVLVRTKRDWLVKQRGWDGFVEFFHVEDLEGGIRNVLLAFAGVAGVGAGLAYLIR
Chain of Genome polyprotein (P29990 2492-3391 limits assumed): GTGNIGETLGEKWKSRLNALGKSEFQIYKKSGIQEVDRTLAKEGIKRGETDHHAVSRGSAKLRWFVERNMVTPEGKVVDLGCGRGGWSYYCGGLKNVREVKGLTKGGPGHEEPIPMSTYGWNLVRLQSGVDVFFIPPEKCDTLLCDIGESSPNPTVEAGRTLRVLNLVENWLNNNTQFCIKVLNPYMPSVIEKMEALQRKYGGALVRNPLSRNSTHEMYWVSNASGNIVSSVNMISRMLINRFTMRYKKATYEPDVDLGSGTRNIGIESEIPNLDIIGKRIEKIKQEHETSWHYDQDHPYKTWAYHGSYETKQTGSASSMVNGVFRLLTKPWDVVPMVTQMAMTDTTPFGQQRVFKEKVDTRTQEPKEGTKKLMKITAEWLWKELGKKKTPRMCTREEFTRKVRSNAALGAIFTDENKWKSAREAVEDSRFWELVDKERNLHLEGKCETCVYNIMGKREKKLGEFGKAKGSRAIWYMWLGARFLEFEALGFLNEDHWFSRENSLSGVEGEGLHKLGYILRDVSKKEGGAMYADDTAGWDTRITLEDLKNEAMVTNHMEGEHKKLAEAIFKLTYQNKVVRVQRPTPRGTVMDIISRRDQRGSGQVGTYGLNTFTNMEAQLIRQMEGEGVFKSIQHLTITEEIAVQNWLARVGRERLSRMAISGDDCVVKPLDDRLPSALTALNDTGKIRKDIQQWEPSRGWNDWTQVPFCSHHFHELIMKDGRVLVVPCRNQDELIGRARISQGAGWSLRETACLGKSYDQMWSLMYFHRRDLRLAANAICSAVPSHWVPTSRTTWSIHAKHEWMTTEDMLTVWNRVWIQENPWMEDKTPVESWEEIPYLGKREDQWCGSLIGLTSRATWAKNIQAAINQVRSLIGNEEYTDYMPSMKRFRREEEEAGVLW

As for `Cc1ccc(N=Nc2c(O)[nH]c3ccc(F)cc23)cc1`, the EC50 was > 300 µM (inconclusive) in [1], > 300 µM (inconclusive) in test [2], > 99 µM (inactive) in [3] and 29.9 µM (inactive) in test [4]. Further, the AC50 in the test on HeLa is 251 µM (active).
`CSc1nc(-c2ccc(N(C)C)cc2)c(C#N)c(=O)n1C`: the EC50 in test [3] is > 99 µM (inactive); in test [4], > 99 µM (inactive); in test [5], 7.08 µM (active).
Turning to `COc1ccc2[nH]c3c4c(ccc3c2c1)C(=O)C=CC4=O`, the IC50 is 919 nM (active) in test [6], 19.1 µM (active) at Hexokinase HKDC1 and > 100 µM (active) on Genome polyprotein. For the same compound, the CC50 with Vero was 17.9 µM (active); in test [7], 3.94 µM (active).
As to `Cc1cc(O)ccc1/N=C/c1c(C(F)(F)F)n[nH]c1O`, the CC50 in the test on Vero was > 40 µM (active). The IC50 in test [8] was 30.2 µM (active).
